Data published in the NIST ThermoML archive (doi:10.1016/j.jct.2017.10.014).

Settings: Liquid; for mass density: 100 kPa, Vibrating tube method; for viscosity: 101.33 kPa, Concentric cylinders viscometry

CC(C)(CO)[C@@H](O)C(=O)NCCCO [d-Panthenol]
Settings	mass density [kg/m3]	viscosity [mPa·s]
293.15 K	1165.18	527287
298.15 K	1161.68	261544
303.15 K	1158.27	125673
308.15 K	1154.96	68487
313.15 K	1151.46	37252
